Reference: PubChem BioAssay AID1745844 (Carcinogenic Potency Database (CPDB), 2022)
Calls of active or inactive are those of the source. How the calls were made is not given here.

Tested on: rodent lifetime carcinogenesis bioassay, tumor incidence TD50
Assay: carcinogenic potency in animals, long-term in vivo studies, CPDB compilation (AID 1745844)
Details: by gavage

SMILES: O=S1(=O)CC=CC1
- carcinogen call (mouse, strain B6C3F1, females, site: any site (literature study), lesion: several types, types named in the paper, dosed 78 weeks, study length 90 weeks): negative (inactive)
- TD50 (mouse, strain B6C3F1, females, site: lung, lesion: alveolar/bronchiolar adenoma + alveolar/bronchiolar carcinoma, dosed 78 weeks, study length 90 weeks): 1940 mg/kg/day
- TD50 (mouse, strain B6C3F1, males, site: any site (literature study), lesion: several types, types named in the paper, dosed 78 weeks, study length 90 weeks): 631 mg/kg/day (inactive)
- TD50 (mouse, strain B6C3F1, males, site: liver, lesion: hepatocellular adenoma + hepatocellular carcinoma + neoplastic nodule, dosed 78 weeks, study length 90 weeks): 415 mg/kg/day
- TD50 (mouse, strain B6C3F1, males, site: lung, lesion: alveolar/bronchiolar adenoma + alveolar/bronchiolar carcinoma, dosed 78 weeks, study length 90 weeks): 882 mg/kg/day
- TD50 (rat, strain Osborne-Mendel, females, site: any site (literature study), lesion: several types, types named in the paper, dosed 78 weeks, study length 111 weeks): 5370 mg/kg/day (inactive)
- TD50 (rat, strain Osborne-Mendel, males, site: any site (literature study), lesion: several types, types named in the paper, dosed 69 weeks, study length 111 weeks): 30.8 mg/kg/day (inactive)
